Assay results from paper PMC6567057, “Pharmacokinetic, metabolic stability, plasma protein binding and CYP450s inhibition/induction assessment studies of N-(2-pyridylmethyl)-2-hydroxiymethyl-1-pyrrolidinyl-4-(3-chloro-4-methoxy-benzylamino)-5-pyrimidine-carboxamide as potential type 5 phosphodiesterase inhibitors” (Animal Cells and Systems, 2019).

Experiments:
dog plasma proteins = experiment: Plasma protein binding by equilibrium dialysis (dog); format: in vitro ADME, Beagle dog; settings: dog plasma, equilibrium dialysis, n = 3
Method: (§1) The phosphate buffer (100 mM) and sodium hydroxide solution (1.0 M) were prepared in deionized water. […] PPB was determined by equilibrium dialysis method. An aliquot (150 μL) of NHPPC spiked plasma and phosphate buffer (pH 7.4) was added into the donor side and the receiver side of each designated well. The plate was covered with adhesive sealing film to prevent evaporation and placed in a water-bath shaker kept at 37°C for 6 h with a rate of 50 rpm. […] At the end of 6 h, aliquots were taken from each side of each well (n = 3) and kept in a −20°C freezer prior to analysis. The stability, device recovery and PPB were calculated using the following equations: Remaining at 6 h (%)=C6h/C0h×100%, Device recovery (%)=CDonor+CReceiver/C6h×100%, PPB (%)=CDonor−CReceiver/CDonor×100%.

rat plasma proteins = experiment: Plasma protein binding by equilibrium dialysis (rat); format: in vitro ADME, Sprague–Dawley rat; settings: rat plasma, equilibrium dialysis, n = 3
Method: as §1

human plasma proteins = experiment: Plasma protein binding by equilibrium dialysis (human); format: in vitro ADME; settings: human plasma, equilibrium dialysis, n = 3
Method: as §1

CC(=O)CC(c1ccccc1)c1c(O)c2ccccc2oc1=O (stereo not drawn) [Warf, reference compound]
Mean device recovery % (dog plasma proteins): 100.7 ± 0.49%
Mean device recovery % (rat plasma proteins): 107.9 ± 0.03%
Mean device recovery % (human plasma proteins): 107.0 ± 0.25%
